Source: the NIST ThermoML archive (doi:10.1016/j.jct.2019.06.011)

Settings: Liquid, Gas chromatography

C=C1C=C[C@@H]([C@@H](C)CCC=C(C)C)CC1 [β-sesquiphellandrene]
Settings	vapor or sublimation pressure [kPa]
298.15 K	0.00063
310 K	0.002
320 K	0.0048
330 K	0.011
340 K	0.023
350 K	0.046
360 K	0.087
370 K	0.16
380 K	0.28
390 K	0.47
400 K	0.76
410 K	1.2
420 K	1.8
430 K	2.8
440 K	4
450 K	5.8
460 K	8.2
470 K	11
480 K	15
490 K	20
500 K	27
510 K	35
520 K	45
530 K	57
540 K	71
556.5 K	101.3

CC(C)=CCC[C@@H](C)c1ccc(C)cc1 [(-)-α-curcumene]
Settings	vapor or sublimation pressure [kPa]
298.15 K	0.00097
310 K	0.003
320 K	0.007
330 K	0.015
340 K	0.032
350 K	0.063
360 K	0.12
370 K	0.21
380 K	0.37
390 K	0.62
400 K	0.99
410 K	1.6
420 K	2.4
430 K	3.5
440 K	5.1
450 K	7.3
460 K	10
470 K	14
480 K	19
490 K	25
500 K	33
510 K	42
520 K	54
530 K	68
540 K	85
548.3 K	101.3

CC(C)=CCC[C@H](C)[C@@H]1C=CC(C)=CC1 [zingiberene]
Settings	vapor or sublimation pressure [kPa]
298.15 K	0.00081
310 K	0.0025
320 K	0.006
330 K	0.013
340 K	0.028
350 K	0.056
360 K	0.11
370 K	0.19
380 K	0.33
390 K	0.56
400 K	0.91
410 K	1.4
420 K	2.2
430 K	3.3
440 K	4.8
450 K	6.8
460 K	9.6
470 K	13
480 K	18
490 K	24
500 K	31
510 K	41
520 K	52
530 K	66
540 K	83
549.5 K	101.3
